Results published in the supplement of paper PMC10307832.

Tests used:
Experiment in all cases: relative viability (nuclei count vs DMSO), 5 days (fraction); higher = more cells survive
CX-5461 + Lapatinib = compound: Cc1cnc(CNC(=O)c2c(=O)c3ccc(N4CCCN(C)CC4)nc3n3c2sc2ccccc23)cn1 [CX-5461] + CS(=O)(=O)CCNCc1ccc(-c2ccc3ncnc(Nc4ccc(OCc5cccc(F)c5)c(Cl)c4)c3c2)o1 [Lapatinib] (partner 2 µM)
In short: (§1)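 Dosing by pin tool came one day after lung cancer cell lines were seeded in 1536-well plates, using either one drug or a fixed anchor-drug dose plus five library-drug doses (not always all listed) in √10 steps. After 5 days, nuclei were counted on 4× images. Relative viability is treated-well nuclei count divided by vehicle-well nuclei count, and values are medians of duplicate plates.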

IMD-0354 + Tozasertib = compound: O=C(Nc1cc(C(F)(F)F)cc(C(F)(F)F)c1)c1cc(Cl)ccc1O [IMD-0354] + Cc1cc(Nc2cc(N3CCN(C)CC3)nc(Sc3ccc(NC(=O)C4CC4)cc3)n2)n[nH]1 [Tozasertib] (partner 0.1 µM)
In short: as §1

IMD-0354 + Alpelisib = compound: O=C(Nc1cc(C(F)(F)F)cc(C(F)(F)F)c1)c1cc(Cl)ccc1O [IMD-0354] + Cc1nc(NC(=O)N2CCC[C@H]2C(N)=O)sc1-c1ccnc(C(C)(C)C(F)(F)F)c1 [Alpelisib] (partner 2 µM)
In short: as §1

IMD-0354 + Olaparib = compound: O=C(Nc1cc(C(F)(F)F)cc(C(F)(F)F)c1)c1cc(Cl)ccc1O [IMD-0354] + O=C(c1cc(Cc2n[nH]c(=O)c3ccccc23)ccc1F)N1CCN(C(=O)C2CC2)CC1 [Olaparib] (partner 8 µM)
In short: as §1

Row | Cell Line | relative viability (CX-5461 + Lapatinib; first compound 0.01 µM) | relative viability (CX-5461 + Lapatinib; first compound 0.03162 µM) | relative viability (CX-5461 + Lapatinib; first compound 0.1 µM) | relative viability (CX-5461 + Lapatinib; first compound 0.3162 µM) | relative viability (CX-5461 + Lapatinib; first compound 1 µM) | relative viability (IMD-0354 + Tozasertib; first compound 0.04 µM) | relative viability (IMD-0354 + Tozasertib; first compound 0.1265 µM) | relative viability (IMD-0354 + Tozasertib; first compound 0.4 µM) | relative viability (IMD-0354 + Tozasertib; first compound 1.265 µM) | relative viability (IMD-0354 + Tozasertib; first compound 4 µM) | relative viability (IMD-0354 + Alpelisib; first compound 0.04 µM) | relative viability (IMD-0354 + Alpelisib; first compound 0.1265 µM) | relative viability (IMD-0354 + Alpelisib; first compound 0.4 µM) | relative viability (IMD-0354 + Alpelisib; first compound 1.265 µM) | relative viability (IMD-0354 + Alpelisib; first compound 4 µM) | relative viability (IMD-0354 + Olaparib; first compound 0.04 µM) | relative viability (IMD-0354 + Olaparib; first compound 0.1265 µM) | relative viability (IMD-0354 + Olaparib; first compound 0.4 µM) | relative viability (IMD-0354 + Olaparib; first compound 1.265 µM) | relative viability (IMD-0354 + Olaparib; first compound 4 µM)
1 | 201T | 1.01 | 1.06 | 1.03 | 0.82 | 0.981 | 1.14 | 0.996 | 0.614 | 1.06 | 0.354 | 1.02 | 1.08 | 0.683 | 1.1 | 0.351 | 0.872 | 0.833 | 0.532 | 0.849 | 0.291
2 | A549 | 0.989 | 1.04 | 0.698 | 0.867 | 0.0911 | – | – | – | – | – | 0.776 | 0.695 | 0.509 | 0.0677 | 0.0557 | 0.365 | 0.555 | 0.108 | 0.0898 | 0.0605
3 | A-427 | 1.06 | 0.999 | 1.04 | – | 0.908 | 0.204 | 0.211 | 0.232 | 0.137 | 0.148 | 1.04 | 1.13 | 0.815 | 0.69 | 0.104 | 0.847 | 0.809 | 0.494 | 0.128 | 0.15
4 | ABC-1 | 1.17 | 1.32 | 1.04 | – | 1.05 | 0.169 | 0.181 | 0.174 | 0.118 | 0.161 | 1.15 | 1.1 | 0.887 | 0.375 | 0.252 | 1.13 | 0.823 | 0.404 | – | 0.427
5 | BEN | 0.77 | 0.647 | 0.821 | 0.487 | 0.54 | 0.53 | 0.51 | 0.329 | 0.468 | 0.452 | 1.11 | 0.915 | 0.498 | 0.442 | 0.245 | 1.07 | 0.975 | 0.782 | 0.437 | 0.394
6 | CAL-12T | 0.697 | 0.673 | 0.486 | 0.247 | 0.617 | 0.399 | 0.307 | 0.242 | 0.278 | 0.111 | 1.49 | 1.31 | 0.596 | 0.267 | 0.173 | 0.728 | 0.705 | 0.492 | 0.181 | 0.203
7 | COR-L23 | 1.08 | 0.833 | 0.674 | 0.804 | 0.414 | 0.197 | 0.159 | 0.175 | 0.0719 | 0.101 | 0.728 | 0.776 | 0.427 | 0.136 | 0.164 | 0.298 | 0.32 | 0.286 | 0.104 | 0.127
8 | COR-L 105 | 0.363 | 0.405 | 0.376 | 0.265 | 0.267 | 0.379 | 0.311 | 0.394 | 0.341 | 0.207 | 1.06 | 0.76 | 0.902 | 0.604 | 0.287 | 0.644 | 0.666 | 0.62 | 0.562 | 0.443
9 | Calu-6 | 1.04 | 1.16 | 0.964 | 0.998 | 0.405 | – | – | – | – | – | 0.925 | 0.909 | 0.672 | 0.101 | 0.0892 | 0.555 | 0.57 | 0.428 | 0.138 | 0.111
10 | ChaGo-K-1 | – | – | – | – | – | 0.226 | 0.196 | 0.236 | 0.171 | 0.176 | – | – | – | – | – | 0.34 | 0.455 | 0.375 | 0.241 | 0.218
11 | EBC-1 | 0.214 | 0.191 | 0.244 | 0.2 | 0.208 | – | – | – | – | – | 0.882 | 0.788 | 0.559 | 0.174 | 0.227 | 0.616 | 0.661 | 0.503 | 0.183 | 0.171
12 | EKVX | 0.228 | 0.206 | 0.196 | – | 0.198 | 0.382 | 0.397 | 0.269 | 0.456 | 0.149 | 0.931 | 0.992 | – | 0.73 | 0.179 | 0.964 | 0.755 | – | 0.634 | 0.204
13 | EMC-BAC-2 | 0.861 | 1.04 | 0.88 | 0.693 | 0.588 | 0.276 | 0.301 | 0.24 | 0.296 | 0.224 | 0.796 | 0.766 | 0.448 | 0.611 | 0.25 | 0.456 | 0.511 | 0.327 | 0.226 | 0.26
14 | EPLC-272H | 0.936 | 1.12 | 0.9 | – | 1.02 | 0.256 | 0.241 | 0.16 | 0.24 | 0.113 | 1.04 | 0.893 | 0.648 | 0.842 | 0.374 | 1.16 | 0.495 | 0.599 | 0.106 | 0.38
15 | H3255 | 0.237 | 0.236 | 0.263 | 0.167 | 0.236 | 0.631 | 0.602 | 0.493 | 0.586 | 0.387 | 0.723 | 0.793 | 0.46 | 0.364 | 0.241 | 0.49 | 0.541 | 0.435 | 0.37 | 0.318
